Assay results: article PMC11345752, “In Situ Biofilm Affinity-Based Protein Profiling Identifies the Streptococcal Hydrolase GbpB as the Target of a Carolacton-Inspired Chemical Probe” (Journal of the American Chemical Society, 2024)

Target: T1, FolD (Escherichia coli, UniProt P24186)
T1 construct: purified E. coli FolD
Assay: dehydrogenase assay with purified FolD
Type: biochemical

Work on COC(CC(=O)O)C(C)C(=O)C(C)/C=C(\C)C1OC(=O)C(O)C(O)C=CC(C)CCCC1C (stereo not shown) [carolacton] yielded an IC50 of 94 nM.
